{
  "source": "patent US8187572B2",
  "about": "“Diabetogenic rat model” (Hoffmann-La Roche Inc., priority 2005, dated 2012)",
  "assay_type_in_all_cases": "in vivo, rat",
  "key": {"ZDF rats [1]": {"system": "ZDF rats", "assay": "Intervention treatment with Pioglitazone in ZDF rats: post-prandial blood and plasma parameters", "conditions": "for average plasma TG level: at the end of treatment", "procedure": "ZDF and ZL rats were ordered at the age of 5 W. After arrival and following 1 week of adaptation, 1 ml of blood was collected retro-orbitally after a short narcosis (isoflurane) in 6 W-old rats. […] A group of 10 ZL rats was formed and followed as a control group along the study duration (FIG. 3). Three groups of ZDF rats receive either vehicle (untreated) or Pioglitazone (treated) as food Admix. In each untreated/treated group of ZDF rats, one is fed a high fat diet during 11 weeks (group_full), during 4 weeks (group_mild) or during 2 weeks (group_low). Treatment was administered orally and prepared as food-admix. This mode of administration was preferred over oral gavage to reduce stress to the animals, avoid dosing errors and minimize handling. Pioglitazone (sufficient for 90 kg food) was dissolved in 18 liters of water. For the three treatment groups of 10 rats each, 6 liters of solution was combined with 30 kg of the diabetogenic diet (KLIBA 2437 with 7% of fat) or 12 liters were mixed with 60 Kg of the chow diet (Kliba 3436). The food was carefully dried at a temperature not exceeding 40° C. and then pelleted. […] The graphs and tables present the data according to expected daily dose. […] Blood sampling was always performed in the morning (9-11 am) 2-to-5 hours after feeding session and 2 h after last oral dosing (food was removed at 7:00 am). Blood (≈200 μl) was harvested retro-orbitally from slightly anesthetized rats (isoflurane) into tubes containing EDTA and kept on ice bed until centrifugation (6000 RPM for 20 minutes at 4° C.). […] Main plasma biochemical parameters (glucose(Gluco-quant, e.g. […] Quantification of HbA1c (%) was performed in whole blood, using an immuno-turbidimetric assay (Tina-quant, e.g. 11822039 from Roche Molecular Diagnostics). Glycosylated haemoglobin (HbA1c) is formed by the non-enzymatic covalent attachment of glucose to normal haemoglobin (HbA). […] HbA1c is a predictor of diabetic complications and interventions that reduce HbA1c correspondingly reduce the risk of complications (UKPDS, 1998). […] Commercially available ELISA kits (LINCO®) were used to quantify plasma concentration of insulin and adiponectin. Adiponectin is an adipokine which is […] and fasting plasma insulin concentration (Goldstein, 2002). Adiponectin plasma concentrations are decreased in […] patients and despite the fact that it is produced by adipocytes, as an individual becomes more obese, the adiponectine is decreased and insulin resistance increases ([…] et al., 1999)."}, "ZDF rats [2]": {"system": "ZDF rats", "assay": "Oral glucose tolerance test (OGTT) with fasting parameters and HOMA in Pioglitazone-treated ZDF rats", "conditions": "for HOMA (insulin resistance index) / fasting insulin levels: after 6 weeks of treatment", "procedure": "ZDF and ZL rats were ordered at the age of 5 W. After arrival and following 1 week of adaptation, 1 ml of blood was collected retro-orbitally after a short narcosis (isoflurane) in 6 W-old rats. […] A group of 10 ZL rats was formed and followed as a control group along the study duration (FIG. 3). Three groups of ZDF rats receive either vehicle (untreated) or Pioglitazone (treated) as food Admix. In each untreated/treated group of ZDF rats, one is fed a high fat diet during 11 weeks (group_full), during 4 weeks (group_mild) or during 2 weeks (group_low). Treatment was administered orally and prepared as food-admix. This mode of administration was preferred over oral gavage to reduce stress to the animals, avoid dosing errors and minimize handling. Pioglitazone (sufficient for 90 kg food) was dissolved in 18 liters of water. For the three treatment groups of 10 rats each, 6 liters of solution was combined with 30 kg of the diabetogenic diet (KLIBA 2437 with 7% of fat) or 12 liters were mixed with 60 Kg of the chow diet (Kliba 3436). The food was carefully dried at a temperature not exceeding 40° C. and then pelleted. […] The graphs and tables present the data according to expected daily dose. […] Blood was then collected in conscious animals (tail vein) for baseline glucose and insulin measurements. […] Studying the evolution of blood glucose concentration along time after a load of glucose will give information about the ability of the organism to use glucose. Using the trapezoidal rule, glucose tolerance was calculated as area under the curve (AUC) of glucose concentration during 120 min and the change from baseline was calculated (delta AUC). HOMA index is also assessed during the OGTT by considering fasting insulin and fasting blood glucose (FBG) levels. HOMA: [FBG (mM)*(Fasting Insulin (μU))/22.5]. HOMA-index translates peripheral insulin resistance. Measurement of insulin was performed using Mercodia Rat Insulin ELISA kit."}, "[3]": {"assay": "Body weight, food intake and water intake of Pioglitazone-treated ZDF rats", "conditions": "ZDF rats group_low, group_mild and group_full; chronic treatment (7 weeks), 10 mg/kg/d food-admix", "procedure": "ZDF and ZL rats were ordered at the age of 5 W. After arrival and following 1 week of adaptation, 1 ml of blood was collected retro-orbitally after a short narcosis (isoflurane) in 6 W-old rats. […] A group of 10 ZL rats was formed and followed as a control group along the study duration (FIG. 3). Three groups of ZDF rats receive either vehicle (untreated) or Pioglitazone (treated) as food Admix. In each untreated/treated group of ZDF rats, one is fed a high fat diet during 11 weeks (group_full), during 4 weeks (group_mild) or during 2 weeks (group_low). Treatment was administered orally and prepared as food-admix. This mode of administration was preferred over oral gavage to reduce stress to the animals, avoid dosing errors and minimize handling. Pioglitazone (sufficient for 90 kg food) was dissolved in 18 liters of water. For the three treatment groups of 10 rats each, 6 liters of solution was combined with 30 kg of the diabetogenic diet (KLIBA 2437 with 7% of fat) or 12 liters were mixed with 60 Kg of the chow diet (Kliba 3436). The food was carefully dried at a temperature not exceeding 40° C. and then pelleted. […] The graphs and tables present the data according to expected daily dose. […] Body weight and food consumption were recorded with an on-line data acquisition system ([…]) using electronic balances."}},
  "data": [
    {"smiles": "CCc1ccc(CCOc2ccc(CC3SC(=O)NC3=O)cc2)nc1.Cl", "note": "(racemic) [Pioglitazone, (±)-5-[[4-[2-(5-ethyl-2-pyridinyl)ethoxy]phenyl]methyl]-2,4-]", "values": [
      {"measurement": "plasma total cholesterol levels", "setting": "ZDF rats [1]; any of the treatment groups", "result": "did not change"},
      {"measurement": "reduction of plasma triglyceride levels compared to vehicle", "setting": "ZDF rats [1]; group_full (fully diabetic ZDF rats)", "result": "69.5±5.2", "unit": "%"},
      {"measurement": "HbA1C", "setting": "ZDF rats [1]; group_full ZDF rats, 10 mg/kg", "result": "significant reduction"},
      {"measurement": "blood glucose levels", "setting": "ZDF rats [1]; group_full ZDF rats, apparent after 2 weeks, partially maintained, 10 mg/kg", "result": "strongly reduced"},
      {"measurement": "hyperinsulinemia", "setting": "ZDF rats [1]; group_full ZDF rats, at the beginning of treatment, effect gone after 5 weeks", "result": "significantly reduced"},
      {"measurement": "average plasma TG level", "setting": "ZDF rats [1]; group_full", "result": "2.8 ± 0.5", "unit": "mM"},
      {"measurement": "plasma TG levels", "setting": "ZDF rats [1]; group_full, compared with ZL 1.1±0.1", "result": "2.9 ± 0.6", "unit": "mM"},
      {"measurement": "plasma NEFA levels", "setting": "ZDF rats [1]; group_full, data not shown", "result": "moderate improvement"},
      {"measurement": "hypertriglyceridemia", "setting": "ZDF rats [1]; group_low", "result": "almost completely and immediately normalized"},
      {"measurement": "development of hyperglycaemia and increase in HbA1c", "setting": "ZDF rats [1]; group_low (moderately diabetic ZDF rats), values similar to untreated ZL rats", "result": "fully prevented"},
      {"measurement": "average plasma TG level", "setting": "ZDF rats [1]; group_low", "result": "1.6 ± 0.1", "unit": "mM"},
      {"measurement": "insulin levels", "setting": "ZDF rats [1]; group_low, end of the 7 week treatment period, ZL 0.8±0.1", "result": "2.1 ± 0.2", "unit": "ng/mL"},
      {"measurement": "hyperinsulinemia", "setting": "ZDF rats [1]; group_low, starting at week 2 of treatment, maintained until end of study", "result": "strongly reversed"},
      {"measurement": "improvement of glucose tolerance (AUC) compared to vehicle", "setting": "ZDF rats [2]; group_full, OGTT after 6 weeks of treatment", "result": 31, "unit": "%"},
      {"measurement": "HOMA (insulin resistance index)", "setting": "ZDF rats [2]; group_full", "result": "14.1±2.7"},
      {"measurement": "fasting insulin levels", "setting": "ZDF rats [2]; group_full", "result": "2.0 ± 0.4", "unit": "ng/mL"},
      {"measurement": "FBG", "setting": "ZDF rats [2]; group_full, after 7 weeks of treatment", "result": "6.7 ± 0.9", "unit": "mM"},
      {"measurement": "AUC reduced compared to vehicle", "setting": "ZDF rats [2]; group_low, OGTT after 6 weeks of treatment", "result": 36, "unit": "%"},
      {"measurement": "glucose excursion AUC", "setting": "ZDF rats [2]; group_low, OGTT after 6 weeks of treatment, ZL 779±15", "result": "1000±48"},
      {"measurement": "fasting insulin levels", "setting": "ZDF rats [2]; group_low", "result": 1.7, "unit": "ng/mL"},
      {"measurement": "HOMA (insulin resistance index)", "setting": "ZDF rats [2]; group_low, ZL 2.0±0.1", "result": "9.4±0.8"},
      {"measurement": "FBG", "setting": "ZDF rats [2]; group_low, vehicle 6.9±0.4, ZL 4.3±0.0", "result": "5.1 ± 0.1", "unit": "mM"},
      {"measurement": "improvement of glucose tolerance (AUC) compared to vehicle", "setting": "ZDF rats [2]; group_mild, OGTT after 6 weeks of treatment", "result": 29, "unit": "%"},
      {"measurement": "HOMA (insulin resistance index)", "setting": "ZDF rats [2]; group_mild", "result": "10.9±1.9"},
      {"measurement": "fasting insulin levels", "setting": "ZDF rats [2]; group_mild", "result": "1.6 ± 0.3", "unit": "ng/mL"},
      {"measurement": "FBG", "setting": "ZDF rats [2]; group_mild, after 7 weeks of treatment", "result": "6.6 ± 1.3", "unit": "mM"},
      {"measurement": "increase in BW versus vehicle", "setting": "[3]", "result": "≈ 30%"}
    ]}
  ]
}
